The values that follow come from patent US10736863B2, “Methods of inhibiting cataracts and presbyopia” (UNIVERSITY OF MASSACHUSETTS, priority 2015, dated 2020).

The target of this test is T1, human γD-crystallin protein (Homo sapiens, UniProt P07320).
T1 construct: 6xHis (N); made in house; host or cells: E. coli (M15pRep; TAM 1 is also named as an expression line); pQe1 plasmids from the King Labs, MIT
T1 sequence (P07320 1-174): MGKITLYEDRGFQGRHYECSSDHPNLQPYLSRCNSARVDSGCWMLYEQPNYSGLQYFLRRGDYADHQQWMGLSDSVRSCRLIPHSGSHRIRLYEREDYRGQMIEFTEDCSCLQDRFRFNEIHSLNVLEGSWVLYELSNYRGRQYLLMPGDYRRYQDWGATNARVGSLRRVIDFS
The test can be described thus: Dynamic light scattering of γD-crystallin protein modified with CA(PEG)n. Format: biochemical. The text has this:
The γD- and γS-crystallin DNA sequences are in pQe1 plasmids that were provided by the King Labs at Massachusetts Institute of Technology (Cambridge, Mass.). γ-crystallin protein sequences contain a 6×N-terminal histidine tag (his tag) for purification purposes. The plasmids were transformed into a cloning competent cell line to create additional plasmid DNA. Plasmids were subsequently transformed into an expression competent cell line for protein synthesis (TAM 1 E. coli cells (Active Motif. Carlsbad, Calif.)).
γ-crystallin plasmid DNA was chemically transformed into M15pRep E. coli cells for protein synthesis. 1 L cultures were grown for protein purification. γ-crystallin protein was purified by Ni affinity chromatography. The N-terminal His tag contained on the γ-crystallin proteins preferentially binds to the Ni column. The bound protein can be eluted with an imidazole gradient which competitively binds to the Ni, releasing the purified protein. The procedure for purification is briefly (as before): protein is loaded on column, and washed first with 20 mM (0% B), then 35 mM (10% B), then 60 mM (20% B) imidazole. Protein is then eluted at 150 mM (57% B) imidazole. Purity was confirmed by SDS PAGE gel electrophoresis and fast protein liquid chromatography (FPLC).
Chemical Modification Protocol: • 1) A batch of purified protein was buffer exchanged into PBS pH=6.8 using a HiTrap™ desalting column. • (2) Concentration (A280) was measured prior to the addition of CA(PEG)n. • (3) 100 mg of CA(PEG)n was added to a 3-5 ml batch of the above protein. • (4) The mixture was placed on a shaker at 4° C. at 250 RPM overnight.
First a solution of unmodified γD-crystallin protein at a concentration of 0.1 mg/mL was studied by DLS. The measured correlation function g2-1 is plotted against the delay time (lag time) is given for the scattering angle of 30° in FIG. 2. The CONTIN analysis of the weight of various relaxation times is given in FIG. 3 for scattering angles ranging from 30° to 60°. It is clear that there are two populations in the solution, one corresponding to aggregates and the other corresponding to unaggregated protein.

[1] abbreviates: 0.9 mg/mL of protein and 33 mg/ml of CA(PEG)n.
[2] abbreviates: 0.4 mg/mL of protein and 15 mg/ml of CA(PEG)2.
The mark [3] stands for this setting: 0.3 mg/mL of protein and 11 mg/ml of CA(PEG)3.

On to `NCCOCCC(=O)O` [CA(PEG)1], for which, under setting [1], the “aggregate population of γD-crystallin by dynamic light scattering” value (from here on “aggregate population of γD-crystallin”) is listed as “absent” and the “size of the unaggregated protein by dynamic light scattering” value (“size of the unaggregated protein” for short) turned out to be 2 nm.
Regarding `NCCOCCOCCC(=O)O` [CA(PEG)2], under setting [2], the “aggregate population of γD-crystallin” value is “absent” and the “size of the unaggregated protein” value worked out at 2 nm.
Turning to `NCCOCCOCCOCCC(=O)O` [CA(PEG)3], under setting [3], the “aggregate population of γD-crystallin” value is given as “absent” and the “size of the unaggregated protein” value is on record as 2 nm.
In the case of `NCCOCCOCCOCCOCCC(=O)O` [CA(PEG)4], under setting [1], the “aggregate population of γD-crystallin” value is on record as “absent” and the “size of the unaggregated protein” value was found to be 2 nm.
